From patent US20050191290A1, “Means and methods for manipulating hypersensitivity-like responses” (priority 2002, published 2005)
Peptide text beside a SMILES is read from it.

System: healthy male volunteers
Assay: Phase 1 single rising dose clinical safety study
Format: in vivo, human
Description: Primary objective: to study the safety and tolerability of F991 at increasing single dose levels in healthy male volunteers
Design: This study was a double-blind, placebo-controlled, single rising dose study in two alternating panels of eight healthy male volunteers. In each panel, two volunteers received placebo throughout the study and the other six volunteers received three increasing single doses of F991.
Safety assessments: vital signs; adverse events (including eyesight); ECG four times each period; clinical laboratory: on admission for each period
Panel I: period 1: 0.08 mg/kg F991 or placebo iv infusion • period 2: 0.8 mg/kg F991 or placebo iv infusion • period 3: 3.2 mg/kg F991 or placebo iv infusion
Panel II: period 1: 0.32 mg/kg F991 or placebo iv infusion • period 2: 1.6 mg/kg F991 or placebo iv infusion • period 3: 6.4 mg/kg F991 or placebo iv infusion Criteria for Evaluation
Safety: adverse events, clinical laboratory test results, ECG recordings, vital signs and physical examination

[1] = single i.v. doses 0.08-6.4 mg/kg

`CC(C)C[C@H](NC(=O)[C@H](CS)NC(=O)[C@H](CS)NC(=O)[C@H](Cc1c[nH]cn1)NC(=O)CNC(=O)[C@H](CO)NC(=O)[C@H](Cc1c[nH]c2ccccc12)NC(=O)[C@H](Cc1c[nH]cn1)NC(=O)[C@H](C)N)C(=O)O` [F991] (H-AHWSGHCCL-OH) was tested, and the safety and tolerability (I.V. single rising doses up to 6.4 mg/kg) was “safe and well tolerated”, the “SAEs during the study” value [1] was “no SAEs” and the “clinical laboratory data, vital signs, ECG and physical examination” value [1] was “no clinically significant abnormalities”. The “correlation between dose and number, frequency and intensity of AEs” value [1] was “No correlation” and the “most frequently reported AEs for volunteers on active drug” value [1] was “eye disorders”.
